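Tested at 5 concentrations; 48 h exposure; 96-well plates; endpoints linearly interpolated, else capped at highest concentration. GI50 = concentration required for 50% inhibition of growth. TGI denotes the concentration required for complete inhibition of growth.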
What was measured:
Test in all cases: NCI tumour cell line growth inhibition, 48 h
A498 renal = system: A498 renal
A549 NSCLC = system: A549 NSCLC
COLO 205 colon = system: COLO 205 colon
RPMI-8226 leukemia = system: RPMI-8226 leukemia
NCI-H522 lung = system: NCI-H522 lung
MDA-MB-231 breast = system: MDA-MB-231 breast
M14 melanoma = system: M14 melanoma
UO-31 renal = system: UO-31 renal
OVCAR-5 ovarian = system: OVCAR-5 ovarian
OVCAR-8 ovarian = system: OVCAR-8 ovarian
K-562 leukemia = system: K-562 leukemia
OVCAR-3 ovarian = system: OVCAR-3 ovarian
SF-268 CNS = system: SF-268 CNS
CAKI-1 renal = system: CAKI-1 renal
SR leukemia = system: SR leukemia
UACC-62 melanoma = system: UACC-62 melanoma
SK-OV-3 ovarian = system: SK-OV-3 ovarian
OVCAR-4 ovarian = system: OVCAR-4 ovarian
NCI-H23 lung = system: NCI-H23 lung
EKVX NSCLC = system: EKVX NSCLC
HCT-15 colon = system: HCT-15 colon
LOX IMVI melanoma = system: LOX IMVI melanoma
NCI-H460 lung = system: NCI-H460 lung
UACC-257 melanoma = system: UACC-257 melanoma
T-47D breast = system: T-47D breast
MCF7 breast = system: MCF7 breast
HL-60(TB) leukemia = system: HL-60(TB) leukemia
SK-MEL-28 melanoma = system: SK-MEL-28 melanoma
HCC-2998 colon = system: HCC-2998 colon
SW-620 colon = system: SW-620 colon
MALME-3M melanoma = system: MALME-3M melanoma
NCI/ADR-RES ovarian = system: NCI/ADR-RES ovarian
SN12C renal = system: SN12C renal
HOP-92 NSCLC = system: HOP-92 NSCLC
TK-10 renal = system: TK-10 renal
PC-3 prostate = system: PC-3 prostate
IGROV1 ovarian = system: IGROV1 ovarian
U251 CNS = system: U251 CNS
SF-539 CNS = system: SF-539 CNS
MDA-MB-435 = system: MDA-MB-435
NCI-H226 lung = system: NCI-H226 lung
DU-145 prostate = system: DU-145 prostate
KM12 colon = system: KM12 colon
BT-549 breast = system: BT-549 breast
HCT-116 colon = system: HCT-116 colon
SNB-75 CNS = system: SNB-75 CNS
SK-MEL-2 melanoma = system: SK-MEL-2 melanoma
SF-295 CNS = system: SF-295 CNS
HS 578T breast = system: HS 578T breast
RXF 393 renal = system: RXF 393 renal
ACHN renal = system: ACHN renal
SK-MEL-5 melanoma = system: SK-MEL-5 melanoma
CCRF-CEM leukemia = system: CCRF-CEM leukemia
HOP-62 NSCLC = system: HOP-62 NSCLC
786-0 renal = system: 786-0 renal
MOLT-4 leukemia = system: MOLT-4 leukemia
SNB-19 CNS = system: SNB-19 CNS
HT29 colon = system: HT29 colon

Question: `CSc1nc(N)cc(Oc2ccc(-c3nc(Nc4cccc(C(F)(F)F)c4)n[nH]3)cc2)n1` was tested. Which GI50 (A498 renal) did it give?
Answer: 486 nM

Question: And the TGI (A498 renal)?
Answer: 5250 nM

Question: What about the GI50 (A549 NSCLC) of the same compound?
Answer: 737 nM

Question: What about the TGI (A549 NSCLC) of the same compound?
Answer: 9510 nM

Question: And the GI50 (COLO 205 colon)?
Answer: 897 nM

Question: What about the TGI (COLO 205 colon) of the same compound?
Answer: 4050 nM

Question: And the GI50 (RPMI-8226 leukemia)?
Answer: 1900 nM

Question: What about the TGI (RPMI-8226 leukemia) of the same compound?
Answer: 12600 nM

Question: And the GI50 (NCI-H522 lung)?
Answer: 651 nM

Question: What about the TGI (NCI-H522 lung) of the same compound?
Answer: 4060 nM

Question: And the GI50 (MDA-MB-231 breast)?
Answer: 1790 nM

Question: What about the TGI (MDA-MB-231 breast) of the same compound?
Answer: 8630 nM

Question: And the GI50 (M14 melanoma)?
Answer: 483 nM

Question: What about the TGI (M14 melanoma) of the same compound?
Answer: 3850 nM

Question: And the GI50 (UO-31 renal)?
Answer: 1600 nM

Question: And the TGI (UO-31 renal)?
Answer: 11300 nM

Question: What about the GI50 (OVCAR-5 ovarian) of the same compound?
Answer: 2380 nM

Question: What about the TGI (OVCAR-5 ovarian) of the same compound?
Answer: 14600 nM

Question: What about the GI50 (OVCAR-8 ovarian) of the same compound?
Answer: 1360 nM

Question: And the TGI (OVCAR-8 ovarian)?
Answer: 10300 nM

Question: And the GI50 (K-562 leukemia)?
Answer: 522 nM

Question: What about the TGI (K-562 leukemia) of the same compound?
Answer: > 35300 nM

Question: What about the GI50 (OVCAR-3 ovarian) of the same compound?
Answer: 336 nM

Question: What about the TGI (OVCAR-3 ovarian) of the same compound?
Answer: 1220 nM

Question: What about the GI50 (SF-268 CNS) of the same compound?
Answer: 894 nM

Question: And the TGI (SF-268 CNS)?
Answer: 12500 nM

Question: What about the GI50 (CAKI-1 renal) of the same compound?
Answer: 640 nM

Question: What about the TGI (CAKI-1 renal) of the same compound?
Answer: 3670 nM

Question: What about the GI50 (SR leukemia) of the same compound?
Answer: 354 nM

Question: And the TGI (SR leukemia)?
Answer: > 100000 nM

Question: What about the GI50 (UACC-62 melanoma) of the same compound?
Answer: 474 nM

Question: And the TGI (UACC-62 melanoma)?
Answer: 4720 nM

Question: What about the GI50 (SK-OV-3 ovarian) of the same compound?
Answer: 516 nM

Question: And the TGI (SK-OV-3 ovarian)?
Answer: 3930 nM

Question: And the GI50 (OVCAR-4 ovarian)?
Answer: 2060 nM

Question: What about the TGI (OVCAR-4 ovarian) of the same compound?
Answer: 13100 nM

Question: What about the GI50 (NCI-H23 lung) of the same compound?
Answer: 893 nM

Question: And the TGI (NCI-H23 lung)?
Answer: 10200 nM

Question: What about the GI50 (EKVX NSCLC) of the same compound?
Answer: 1660 nM

Question: What about the TGI (EKVX NSCLC) of the same compound?
Answer: 10100 nM

Question: And the GI50 (HCT-15 colon)?
Answer: 531 nM

Question: What about the TGI (HCT-15 colon) of the same compound?
Answer: 8070 nM

Question: And the GI50 (LOX IMVI melanoma)?
Answer: 520 nM

Question: And the TGI (LOX IMVI melanoma)?
Answer: 2050 nM

Question: What about the GI50 (NCI-H460 lung) of the same compound?
Answer: 440 nM

Question: What about the TGI (NCI-H460 lung) of the same compound?
Answer: 3030 nM

Question: What about the GI50 (UACC-257 melanoma) of the same compound?
Answer: 776 nM

Question: What about the TGI (UACC-257 melanoma) of the same compound?
Answer: 6340 nM

Question: And the GI50 (T-47D breast)?
Answer: 810 nM

Question: And the TGI (T-47D breast)?
Answer: 5110 nM

Question: And the GI50 (MCF7 breast)?
Answer: 357 nM

Question: What about the TGI (MCF7 breast) of the same compound?
Answer: 5020 nM

Question: And the GI50 (HL-60(TB) leukemia)?
Answer: 2360 nM

Question: And the TGI (HL-60(TB) leukemia)?
Answer: 9230 nM

Question: What about the GI50 (SK-MEL-28 melanoma) of the same compound?
Answer: 1460 nM

Question: What about the TGI (SK-MEL-28 melanoma) of the same compound?
Answer: 10400 nM

Question: And the GI50 (HCC-2998 colon)?
Answer: 1330 nM

Question: And the TGI (HCC-2998 colon)?
Answer: 4960 nM

Question: What about the GI50 (SW-620 colon) of the same compound?
Answer: 478 nM

Question: What about the TGI (SW-620 colon) of the same compound?
Answer: 13600 nM

Question: And the GI50 (MALME-3M melanoma)?
Answer: 1190 nM

Question: What about the TGI (MALME-3M melanoma) of the same compound?
Answer: 8420 nM

Question: What about the GI50 (NCI/ADR-RES ovarian) of the same compound?
Answer: 1110 nM

Question: What about the TGI (NCI/ADR-RES ovarian) of the same compound?
Answer: 7450 nM

Question: And the GI50 (SN12C renal)?
Answer: 1150 nM

Question: And the TGI (SN12C renal)?
Answer: 12300 nM

Question: And the GI50 (HOP-92 NSCLC)?
Answer: 1300 nM

Question: What about the TGI (HOP-92 NSCLC) of the same compound?
Answer: 6000 nM

Question: What about the GI50 (TK-10 renal) of the same compound?
Answer: 1540 nM

Question: What about the TGI (TK-10 renal) of the same compound?
Answer: 7730 nM

Question: What about the GI50 (PC-3 prostate) of the same compound?
Answer: 1130 nM

Question: And the TGI (PC-3 prostate)?
Answer: 9410 nM

Question: What about the GI50 (IGROV1 ovarian) of the same compound?
Answer: 1880 nM

Question: What about the TGI (IGROV1 ovarian) of the same compound?
Answer: 18300 nM

Question: And the GI50 (U251 CNS)?
Answer: 548 nM

Question: And the TGI (U251 CNS)?
Answer: 4730 nM

Question: What about the GI50 (SF-539 CNS) of the same compound?
Answer: 621 nM

Question: What about the TGI (SF-539 CNS) of the same compound?
Answer: 4190 nM

Question: And the GI50 (MDA-MB-435)?
Answer: 255 nM

Question: What about the TGI (MDA-MB-435) of the same compound?
Answer: 744 nM

Question: And the GI50 (NCI-H226 lung)?
Answer: 1810 nM

Question: And the TGI (NCI-H226 lung)?
Answer: 7690 nM

Question: And the GI50 (DU-145 prostate)?
Answer: 1280 nM

Question: And the TGI (DU-145 prostate)?
Answer: 9530 nM

Question: What about the GI50 (KM12 colon) of the same compound?
Answer: 498 nM

Question: And the TGI (KM12 colon)?
Answer: 4460 nM

Question: What about the GI50 (BT-549 breast) of the same compound?
Answer: 721 nM

Question: What about the TGI (BT-549 breast) of the same compound?
Answer: 6820 nM

Question: What about the GI50 (HCT-116 colon) of the same compound?
Answer: 456 nM

Question: And the TGI (HCT-116 colon)?
Answer: 2150 nM

Question: And the GI50 (SNB-75 CNS)?
Answer: 371 nM

Question: And the TGI (SNB-75 CNS)?
Answer: 4460 nM

Question: What about the GI50 (SK-MEL-2 melanoma) of the same compound?
Answer: 789 nM

Question: What about the TGI (SK-MEL-2 melanoma) of the same compound?
Answer: 6060 nM

Question: What about the GI50 (SF-295 CNS) of the same compound?
Answer: 784 nM

Question: What about the TGI (SF-295 CNS) of the same compound?
Answer: 6240 nM

Question: And the GI50 (HS 578T breast)?
Answer: 642 nM

Question: What about the TGI (HS 578T breast) of the same compound?
Answer: 9290 nM

Question: What about the GI50 (RXF 393 renal) of the same compound?
Answer: 504 nM

Question: What about the TGI (RXF 393 renal) of the same compound?
Answer: 2250 nM

Question: And the GI50 (ACHN renal)?
Answer: 873 nM

Question: And the TGI (ACHN renal)?
Answer: 9640 nM

Question: And the GI50 (SK-MEL-5 melanoma)?
Answer: 416 nM

Question: And the TGI (SK-MEL-5 melanoma)?
Answer: 1570 nM

Question: What about the GI50 (CCRF-CEM leukemia) of the same compound?
Answer: 773 nM

Question: And the TGI (CCRF-CEM leukemia)?
Answer: > 43500 nM

Question: And the GI50 (HOP-62 NSCLC)?
Answer: 593 nM

Question: What about the TGI (HOP-62 NSCLC) of the same compound?
Answer: 4990 nM

Question: What about the GI50 (786-0 renal) of the same compound?
Answer: 1280 nM

Question: What about the TGI (786-0 renal) of the same compound?
Answer: 4860 nM

Question: And the GI50 (MOLT-4 leukemia)?
Answer: 1250 nM

Question: And the TGI (MOLT-4 leukemia)?
Answer: > 38400 nM

Question: And the GI50 (SNB-19 CNS)?
Answer: 1220 nM

Question: What about the TGI (SNB-19 CNS) of the same compound?
Answer: 14900 nM

Question: What about the GI50 (HT29 colon) of the same compound?
Answer: 432 nM

Question: What about the TGI (HT29 colon) of the same compound?
Answer: 2710 nM

Source: PubChem BioAssay (NCI)
